For orientation: IC50 means the concentration at which inhibition is half-maximal. Low values mean inhibition by little substance, high ones a need for much substance.

For experiment [1], the target named is T1, human TLR8 (Homo sapiens, UniProt Q9NR97).
T1 construct: host or cells: HEK-Blue cells
T1 sequence (Q9NR97 27-1041): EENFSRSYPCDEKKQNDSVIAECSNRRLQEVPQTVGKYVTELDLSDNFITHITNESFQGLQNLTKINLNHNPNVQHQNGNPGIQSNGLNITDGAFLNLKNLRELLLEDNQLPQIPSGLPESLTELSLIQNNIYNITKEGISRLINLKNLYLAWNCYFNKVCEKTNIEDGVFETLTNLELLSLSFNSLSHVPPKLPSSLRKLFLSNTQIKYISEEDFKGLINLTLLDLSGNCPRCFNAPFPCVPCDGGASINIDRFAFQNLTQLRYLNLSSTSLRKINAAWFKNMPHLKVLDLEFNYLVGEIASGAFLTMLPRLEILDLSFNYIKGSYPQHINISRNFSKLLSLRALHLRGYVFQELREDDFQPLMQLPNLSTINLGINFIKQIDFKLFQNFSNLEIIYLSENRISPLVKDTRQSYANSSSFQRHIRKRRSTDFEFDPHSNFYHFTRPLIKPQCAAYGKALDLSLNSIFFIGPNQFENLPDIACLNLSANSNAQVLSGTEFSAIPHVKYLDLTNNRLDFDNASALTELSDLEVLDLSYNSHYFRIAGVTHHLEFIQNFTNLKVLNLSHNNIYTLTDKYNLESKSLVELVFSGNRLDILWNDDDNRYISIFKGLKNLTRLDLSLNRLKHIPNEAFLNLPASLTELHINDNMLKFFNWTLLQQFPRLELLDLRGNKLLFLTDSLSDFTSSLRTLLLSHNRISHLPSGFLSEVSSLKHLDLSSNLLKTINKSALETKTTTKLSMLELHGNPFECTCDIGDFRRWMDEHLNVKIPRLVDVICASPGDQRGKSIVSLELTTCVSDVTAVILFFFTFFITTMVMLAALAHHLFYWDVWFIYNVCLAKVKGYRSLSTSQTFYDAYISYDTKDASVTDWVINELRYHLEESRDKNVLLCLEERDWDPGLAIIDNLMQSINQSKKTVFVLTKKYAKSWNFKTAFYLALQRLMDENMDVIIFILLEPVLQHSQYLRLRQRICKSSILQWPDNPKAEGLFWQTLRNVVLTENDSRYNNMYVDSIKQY
The experiment is described as follows: TLR8 inhibition reporter assay (HEK-Blue cells, SEAP reporter, R848 stimulation). Conditions: HEK-Blue cells overexpressing human TLR8, R848 15.9 μM. The format is cell-based. A digest of the protocol:
(§1)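 SEAP readout via HEK-Blue Detection medium after 22 h at 37 °C, 5% CO2 defines inhibition, normalized between agonist-plus-DMSO wells and a reference inhibitor. Compound dose range 0.05 nM–50 μM; TLR7 cells at 15,000/well (gardiquimod), TLR8 at 20,000/well (R848).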
(In general: Reporter assays use an easily measured gene product as a stand-in for the process of interest.)

Experiment [2] concerns the target T2, human TLR7 (Homo sapiens, UniProt Q9NYK1).
T2 construct: host or cells: HEK-Blue cells
T2 sequence (Q9NYK1 27-1049): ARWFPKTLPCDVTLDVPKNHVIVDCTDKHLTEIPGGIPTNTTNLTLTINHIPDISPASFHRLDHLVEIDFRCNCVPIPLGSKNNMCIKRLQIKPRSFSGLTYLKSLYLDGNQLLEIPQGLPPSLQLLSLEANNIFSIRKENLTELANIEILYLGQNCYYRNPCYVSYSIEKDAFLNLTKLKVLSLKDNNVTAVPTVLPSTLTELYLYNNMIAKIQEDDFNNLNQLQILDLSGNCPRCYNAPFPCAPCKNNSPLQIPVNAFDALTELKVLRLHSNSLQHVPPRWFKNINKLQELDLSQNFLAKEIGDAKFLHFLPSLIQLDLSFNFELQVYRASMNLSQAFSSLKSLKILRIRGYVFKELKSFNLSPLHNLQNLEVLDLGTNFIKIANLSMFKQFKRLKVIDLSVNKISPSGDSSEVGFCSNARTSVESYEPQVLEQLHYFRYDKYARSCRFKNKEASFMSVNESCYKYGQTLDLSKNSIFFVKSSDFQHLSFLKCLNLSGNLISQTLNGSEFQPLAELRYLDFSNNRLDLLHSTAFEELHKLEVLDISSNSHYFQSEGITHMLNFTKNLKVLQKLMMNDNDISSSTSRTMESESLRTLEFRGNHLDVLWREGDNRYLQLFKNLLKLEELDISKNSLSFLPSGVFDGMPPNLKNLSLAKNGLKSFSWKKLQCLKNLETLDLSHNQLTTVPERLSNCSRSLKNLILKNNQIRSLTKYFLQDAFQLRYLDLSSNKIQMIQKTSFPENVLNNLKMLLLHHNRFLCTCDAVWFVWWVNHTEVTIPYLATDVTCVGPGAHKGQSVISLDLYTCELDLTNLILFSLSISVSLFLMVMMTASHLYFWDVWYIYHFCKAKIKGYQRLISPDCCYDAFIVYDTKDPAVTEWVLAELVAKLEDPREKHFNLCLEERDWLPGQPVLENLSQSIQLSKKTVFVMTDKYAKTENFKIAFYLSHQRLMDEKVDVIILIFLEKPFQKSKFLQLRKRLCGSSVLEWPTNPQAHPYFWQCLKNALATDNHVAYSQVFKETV
In words: TLR7 inhibition reporter assay (HEK-Blue cells, SEAP reporter, gardiquimod stimulation). The experiment is classed as cell-based. Conditions: HEK-Blue cells overexpressing human TLR7, gardiquimod 7.5 μM. Summed up:
as §1

Where a name gives a salt, the structure may show the parent alone.

For the molecule `COc1ccc(-c2[nH]c3ccc(C4CCN(C(=O)CN[C@H](C)C(C)C)CC4)cc3c2C2CCOCC2)cc1OC` [Example 394, (R)-1-(4-(2-(3,4-dimethoxyphenyl)-3-(tetrahydro-2H-pyran-4-yl)-1H-indol-5-yl)piperidin-1-yl)-2-((3-methylbutan-2-yl)amino)ethan-1-one], the IC50 in experiment [1] turned out to be 660 nM; in experiment [2] it was 1390 nM.

For `COc1ccc(-c2[nH]c3ccc(C4CCN(C(=O)CN(C)C)CC4)cc3c2C(O)C(F)(F)F)cc1OC` (stereo not drawn) [Example 395, 1-(4-(2-(3,4-dimethoxyphenyl)-3-(2,2,2-trifluoro-1-hydroxyethyl)-1H-indol-5-yl)piperidin-1-yl)-2-(dimethylamino)ethan-1-one], the IC50 came to 438 nM in experiment [1] and 61 nM in experiment [2].

In the case of `CCc1c(-c2ccc(OC)c(OC)c2)[nH]c2cc(C)c(C3CCNCC3)cc12` [Example 396, 2-(3,4-dimethoxyphenyl)-3-ethyl-6-methyl-5-(piperidin-4-yl)-1H-indole, HCl], the IC50 in experiment [1] is 295 nM; in experiment [2], 47 nM.

Turning to `COc1ccc(-c2[nH]c3ccc(C4CCN(C(=O)CN(C)C)CC4)cc3c2CC(F)F)cc1OC` [Example 399, 1-(4-(3-(2,2-difluoroethyl)-2-(3,4-dimethoxyphenyl)-1H-indol-5-yl)piperidin-1-yl)-2-(dimethylamino)ethan-1-one], the IC50 in experiment [1] was 82 nM; in experiment [2], 106 nM.

As to `COc1ccc(-c2[nH]c3ccc(C4CCN(CC(=O)N(C)C)CC4)cc3c2CC(F)F)cc1OC` [Example 400, 2-(4-(3-(2,2-difluoroethyl)-2-(3,4-dimethoxyphenyl)-1H-indol-5-yl)piperidin-1-yl)-N,N-dimethylacetamide], the results for the IC50 in experiment [1] and in experiment [2] were 110 nM and 157 nM, respectively.

For `CNC(=O)CN1CCC(c2ccc3[nH]c(-c4ccc(OC)c(OC)c4)c(CC(F)F)c3c2)CC1` [Example 401, 2-(4-(3-(2,2-difluoroethyl)-2-(3,4-dimethoxyphenyl)-1H-indol-5-yl)piperidin-1-yl)-N-methylacetamide], the IC50 in experiment [1] amounted to 128 nM; in experiment [2] it was 132 nM.

Consider `COc1ccc(-c2[nH]c3ccc(C4CCN(C(=O)CN(C)C)CC4)cc3c2C)cc1OC` [Example 402, 1-(4-(2-(3,4-dimethoxyphenyl)-3-methyl-1H-indol-5-yl)piperidin-1-yl)-2-(dimethylamino)ethan-1-one], for which the IC50 in experiment [1] was 2280 nM; in experiment [2] it was 544 nM.

`CCN(CC)C(=O)C1CCCN(CC(=O)N2CCC(c3ccc4[nH]c(-c5ccc(OC)c(OC)c5)c(C)c4c3)CC2)C1` (stereo not drawn) [Example 404, 1-(2-(4-(2-(3,4-dimethoxyphenyl)-3-methyl-1H-indol-5-yl)piperidin-1-yl)-2-oxoethyl)-N,N-diethylpiperidine-3-carboxamide]: the IC50 was found to be 3750 nM in experiment [1] and 3150 nM in experiment [2].

Consider `COc1ccc(-c2[nH]c3ccc(C4CCN(C(=O)CNC[C@@H](O)CO)CC4)cc3c2C)cc1OC` [Example 405, (R)-2-((2,3-dihydroxypropyl)amino)-1-(4-(2-(3,4-dimethoxyphenyl)-3-methyl-1H-indol-5-yl)piperidin-1-yl)ethan-1-one], for which the IC50 is 29200 nM in experiment [1] and 18300 nM in experiment [2].

The values are drawn from patent publication US11180474B2 (BRISTOL-MYERS SQUIBB COMPANY, priority 2016, dated 2021).
